Results as given in PMC4138103 (PLoS ONE, 2014).

Tested on: Sprague-Dawley rats
Experiment: Hematology
Assay type: in vivo, Rattus norvegicus
Design: key to Dose response, MCH / Dose response, MCHC / Dose response, PLT / Dose response, MCV: D: significant dose response (for results, see Table 2); T: significant trend; HCT, Hematocrit: unit not given here
Details: for RBC, Red cell count / HCT, Hematocrit / Basophils / Eosinophils / HB, Hemoglobin / Lymphocytes / MCH, Mean corpuscular hemoglobin / MCHC, Mean corpuscular hemoglobin concentration / MCV, Mean corpuscular volume / MPV, Mean platelet volume / Monocytes / Neutrophils / PDW, Platelet distribution width / PLT, Platelet count / WBC, Leukocyte total count: group mean; for RBC, CED: adipose tissue concentration based
Experimental: Basic blood picture analysis was carried out using Advia 120 analyzer (Bayer, later Siemens Diagnostic Division, Dublin, Ireland). This analysis includes red cell count (RBC), hemoglobin (HB), hematocrit (HCT), platelet count (PLT), leukocyte total count (WBC) and differential count as well as the calculated red cell and platelet parameters mean corpuscular volume (MCV), mean corpuscular hemoglobin (MCH), mean corpuscular hemoglobin concentration (MCHC), red cell distribution width - standard deviation (RDW-SD), platelet distribution width (PDW) and mean platelet volume (MPV). Blood cell counting is based on isovolumetric sphering and fixing the cells, stains and light scattering. Visual leukocyte differential counting was done after May-Grünwald-Giemsa staining.
Data were also analyzed using the BMD method, which is based on dose-response modeling of the full data set using a nested family of exponential and Hill models. The analyses were done on data of males and females combined, using sex as a covariate. […] In that case, different Critical Effect Doses (CEDs) and CEDs at the lowest bound of the confidence interval (CED-L) were generated for each sex. If no difference between sexes is detected, a CED and CED-Ls for the combined data is generated. However, this was also done if the curve fits are close, and separate analyses for males and females were then performed manually. CEDs and CED-Ls were calculated at the predefined Critical Effect Size (CES) of 5% (EFSA standard) or 10%.

[1] = females, total doses 0-1700 mg/kg bw
[2] = females, CES 5%, total dose based
[3] = females, CES 10%, total dose based
[4] = males, total dose 3 mg/kg bw, N=5
[5] = males, total dose 10 mg/kg bw, N=5
[6] = males, total dose 30 mg/kg bw, N=5
[7] = males, total dose 100 mg/kg bw, N=5
[8] = males, total dose 300 mg/kg bw, N=5
[9] = males, total dose 300 mg/kg bw, N=5, p<0.01 vs. control
[10] = males, total dose 1000 mg/kg bw, N=5
[11] = males, total dose 1000 mg/kg bw, N=5, p<0.001 vs. control
[12] = males, total dose 1700 mg/kg bw, N=5
[13] = males, total dose 1700 mg/kg bw, N=5, p<0.001 vs. control
[14] = males, total doses 0-1700 mg/kg bw
[15] = males, CES 5%, total dose based
[16] = males, CES 10%, total dose based

Clc1cc(Cl)c(-c2cc(Cl)c(Cl)c(Cl)c2Cl)cc1Cl [PCB 180, 2,2′,3′,4,4′,5,5′-heptachlorobiphenyl]
RBC, Red cell count (females, total dose 1700 mg/kg bw, N=5, p<0.001 vs. control): 6.43e+12 L⁻¹ | HCT, Hematocrit (females, total dose 1700 mg/kg bw, N=5, p<0.01 vs. control): 0.41 | Dose response, HB [1]: D, T | Dose response, HCT [1]: D, T | Dose response, MCV [1]: T | Dose response, RBC [1]: D, T | Hematocrit, CED [2]: 832 mg/kg bw | Hematocrit, CED-L [2]: 646 mg/kg bw | Hemoglobin, CED [2]: 739 mg/kg bw | Hemoglobin, CED-L [2]: 600 mg/kg bw | Red blood cell count, CED [2]: 638 mg/kg bw | Red blood cell count, CED-L [2]: 514 mg/kg bw | Red cell distribution width - SD, CED [2]: 1400 mg/kg bw | Red cell distribution width - SD, CED-L [2]: 1093 mg/kg bw | Hematocrit, CED [3]: 1710 mg/kg bw | Hematocrit, CED-L [3]: 1327 mg/kg bw | Hemoglobin, CED [3]: 1520 mg/kg bw | Hemoglobin, CED-L [3]: 1233 mg/kg bw | Red blood cell count, CED [3]: 1310 mg/kg bw | Red blood cell count, CED-L [3]: 1056 mg/kg bw | Red cell distribution width - SD, CED [3]: 1650 mg/kg bw | Red cell distribution width - SD, CED-L [3]: 1498 mg/kg bw | RBC, CED (females): 4170 µg/g lipid | Basophils [4]: 0.0% | Eosinophils [4]: 0.6% | HB, Hemoglobin [4]: 179 g/L | HCT, Hematocrit [4]: 0.52 | Lymphocytes [4]: 87% | MCH, Mean corpuscular hemoglobin [4]: 21.9 pg | MCHC, Mean corpuscular hemoglobin concentration [4]: 346 g/L | MCV, Mean corpuscular volume [4]: 63.4 fL | MPV, Mean platelet volume [4]: 7.16 fL | Monocytes [4]: 4.4% | Neutrophils [4]: 8.0% | PDW, Platelet distribution width [4]: 7.66 fL | PLT, Platelet count [4]: 8.36e+11 L⁻¹ | RBC, Red cell count [4]: 8.18e+12 L⁻¹ | WBC, Leukocyte total count [4]: 1.896e+10 L⁻¹ | Basophils [5]: 0.2% | Eosinophils [5]: 0.6% | HB, Hemoglobin [5]: 171 g/L | HCT, Hematocrit [5]: 0.49 | Lymphocytes [5]: 84.6% | MCH, Mean corpuscular hemoglobin [5]: 22.02 pg | MCHC, Mean corpuscular hemoglobin concentration [5]: 350 g/L | MCV, Mean corpuscular volume [5]: 63.0 fL | MPV, Mean platelet volume [5]: 6.96 fL | Monocytes [5]: 4.4% | Neutrophils [5]: 10.2% | PDW, Platelet distribution width [5]: 7.54 fL | PLT, Platelet count [5]: 8.27e+11 L⁻¹ | RBC, Red cell count [5]: 7.79e+12 L⁻¹ | WBC, Leukocyte total count [5]: 1.674e+10 L⁻¹ | Basophils [6]: 0.0% | Eosinophils [6]: 0.6% | HB, Hemoglobin [6]: 170 g/L | HCT, Hematocrit [6]: 0.49 | Lymphocytes [6]: 87.8% | MCH, Mean corpuscular hemoglobin [6]: 22 pg | MCHC, Mean corpuscular hemoglobin concentration [6]: 349 g/L | MCV, Mean corpuscular volume [6]: 63.1 fL | MPV, Mean platelet volume [6]: 6.92 fL | Monocytes [6]: 4.2% | Neutrophils [6]: 7.4% | PDW, Platelet distribution width [6]: 7.44 fL | PLT, Platelet count [6]: 8.6e+11 L⁻¹ | RBC, Red cell count [6]: 7.73e+12 L⁻¹ | WBC, Leukocyte total count [6]: 1.7e+10 L⁻¹ | Basophils [7]: 0.0% | Eosinophils [7]: 0.6% | HB, Hemoglobin [7]: 170 g/L | HCT, Hematocrit [7]: 0.48 | Lymphocytes [7]: 87.8% | MCH, Mean corpuscular hemoglobin [7]: 22.18 pg | MCHC, Mean corpuscular hemoglobin concentration [7]: 352 g/L | MCV, Mean corpuscular volume [7]: 63.1 fL | MPV, Mean platelet volume [7]: 7.28 fL | Monocytes [7]: 4.4% | Neutrophils [7]: 7.2% | PDW, Platelet distribution width [7]: 7.90 fL | PLT, Platelet count [7]: 8.93e+11 L⁻¹ | RBC, Red cell count [7]: 7.65e+12 L⁻¹ | WBC, Leukocyte total count [7]: 1.654e+10 L⁻¹ | Basophils [8]: 0.0% | Eosinophils [8]: 1.0% | HB, Hemoglobin [8]: 165 g/L | Lymphocytes [8]: 85.8% | MCH, Mean corpuscular hemoglobin [8]: 22.38 pg | MCHC, Mean corpuscular hemoglobin concentration [8]: 351 g/L | MCV, Mean corpuscular volume [8]: 63.8 fL | MPV, Mean platelet volume [8]: 7.12 fL | Monocytes [8]: 5.2% | Neutrophils [8]: 8.0% | PDW, Platelet distribution width [8]: 7.66 fL | PLT, Platelet count [8]: 9.4e+11 L⁻¹ | WBC, Leukocyte total count [8]: 2.076e+10 L⁻¹ | HCT, Hematocrit [9]: 0.47 | RBC, Red cell count [9]: 7.38e+12 L⁻¹ | Basophils [10]: 0.0% | Eosinophils [10]: 1.0% | Lymphocytes [10]: 86.8% | MCH, Mean corpuscular hemoglobin [10]: 22.94 pg | MCV, Mean corpuscular volume [10]: 63.2 fL | MPV, Mean platelet volume [10]: 7.04 fL | Monocytes [10]: 3.6% | Neutrophils [10]: 8.6% | PDW, Platelet distribution width [10]: 7.60 fL | PLT, Platelet count [10]: 8.85e+11 L⁻¹ | WBC, Leukocyte total count [10]: 1.798e+10 L⁻¹ | HCT, Hematocrit [11]: 0.44 | RBC, Red cell count [11]: 6.99e+12 L⁻¹ | MCHC, Mean corpuscular hemoglobin concentration (males, total dose 1000 mg/kg bw, N=5, p<0.01 vs. control): 364 g/L | HB, Hemoglobin (males, total dose 1000 mg/kg bw, N=5, p<0.05 vs. control): 161 g/L | Basophils [12]: 0.4% | Eosinophils [12]: 0.4% | Lymphocytes [12]: 87.2% | MCH, Mean corpuscular hemoglobin [12]: 22.78 pg | MCHC, Mean corpuscular hemoglobin concentration [12]: 355 g/L | MCV, Mean corpuscular volume [12]: 64.2 fL | MPV, Mean platelet volume [12]: 7.08 fL | Monocytes [12]: 5.4% | Neutrophils [12]: 6.6% | PDW, Platelet distribution width [12]: 7.54 fL | PLT, Platelet count [12]: 9.37e+11 L⁻¹ | WBC, Leukocyte total count [12]: 1.68e+10 L⁻¹ | HCT, Hematocrit [13]: 0.45 | RBC, Red cell count [13]: 6.99e+12 L⁻¹ | HB, Hemoglobin (males, total dose 1700 mg/kg bw, N=5, p<0.01 vs. control): 159 g/L | Dose response, HB [14]: D, T | Dose response, HCT [14]: D, T | Dose response, MCH [14]: T | Dose response, MCHC [14]: T | Dose response, PLT [14]: T | Dose response, RBC [14]: D, T | Hematocrit, CED [15]: 140 mg/kg bw | Hematocrit, CED-L [15]: 66.3 mg/kg bw | Hemoglobin, CED [15]: 201 mg/kg bw | Hemoglobin, CED-L [15]: 62.8 mg/kg bw | Platelet count, CED [15]: 40.7 mg/kg bw | Platelet count, CED-L [15]: 9.68 mg/kg bw | Red blood cell count, CED [15]: 138 mg/kg bw | Red blood cell count, CED-L [15]: 82.2 mg/kg bw | Hematocrit, CED [16]: 481 mg/kg bw | Platelet count, CED [16]: 143 mg/kg bw | Red blood cell count, CED [16]: 436 mg/kg bw | Red blood cell count, CED-L [16]: 252 mg/kg bw | RBC, CED (males): 598 µg/g lipid
